In ChEMBL document CHEMBL4261637, “Discovery of a non-toxic [1,2,4]triazolo[1,5-a]pyrimidin-7-one (WS-10) that modulates ABCB1-mediated multidrug resistance (MDR)” (Bioorg Med Chem, 2018):
Active and inactive are the calls of the source. The rule behind the calls is not given here.

Assays:
[1] = tested on: HEK-293T; test: Potentiation of paclitaxel-induced cytotoxicity in human HEK293T/NC cells assessed as fold reduction in paclitaxel IC50 at 10 uM after 72 hrs by MTT assay relative to paclitaxel; format: functional
[2] = tested on: HEK-293T; test: Potentiation of doxorubicin-induced cytotoxicity in human HEK293T/NC cells assessed as fold reduction in doxorubicin IC50 at 20 uM after 72 hrs by MTT assay relative to doxorubicin; format: functional
[3] = tested on: A549; test: Cytotoxicity against human A549 cells at 10 to 20 uM after 72 hrs by MTT assay; format: cell-based; conditions: a549, 72 h
[4] = tested on: MGC-803; test: Cytotoxicity against human MGC803 cells at 10 to 20 uM after 72 hrs by MTT assay; format: cell-based; conditions: mgc-803, 72 h
[5] = tested on: SW-620; test: Potentiation of doxorubicin-induced cytotoxicity in human SW620 cells assessed as fold reduction in doxorubicin IC50 at 20 uM after 72 hrs by MTT assay relative to doxorubicin alone; format: functional
[6] = tested on: SGC-7901; test: Cytotoxicity against human SGC7901 cells at 10 to 20 uM after 72 hrs by MTT assay; format: cell-based; conditions: sgc-7901, 72 h
[7] = tested on: SW-620; test: Potentiation of doxorubicin-induced cytotoxicity in human SW620 cells assessed as fold reduction in doxorubicin IC50 at 10 uM after 72 hrs by MTT assay relative to doxorubicin alone; format: functional
[8] = tested on: SW-620; test: Potentiation of paclitaxel-induced cytotoxicity in human SW620 cells assessed as fold reduction in paclitaxel IC50 at 10 uM after 72 hrs by MTT assay relative to paclitaxel alone; format: functional
[9] = tested on: HEK-293T; test: Potentiation of cisplatin-induced cytotoxicity in human HEK293T/NC cells assessed as fold reduction in cisplatin IC50 at 10 uM after 72 hrs by MTT assay relative to cisplatin; format: functional
[10] = molecular target: T1, ATP-dependent translocase ABCB1 (Homo sapiens, UniProt P08183); test: Inhibition of ABCB1 in human SW620/AD300 cells assessed as intracellular accumulation of paclitaxel at 10 to 20 uM after 72 hrs by UPLC analysis; format: cell-based
[11] = tested on: SW-620; test: Potentiation of cisplatin-induced cytotoxicity in human SW620 cells assessed as fold reduction in cisplatin IC50 at 20 uM after 72 hrs by MTT assay relative to cisplatin alone; format: functional
[12] = tested on: SW620/AD300; test: Effect on subcellular localization of ABCB1 in human SW620/AD300 cells at 10 to 20 uM after 72 hrs by Hoechst 33342 staining-based immunofluorescence assay; format: functional, cell-based
[13] = tested on: SW620/AD300; test: Effect on ABCB1 expression in human SW620/AD300 cells at 20 uM up to 96 hrs by Western blot analysis; format: functional, cell-based
[14] = tested on: HEK-293T; test: Potentiation of paclitaxel-induced cytotoxicity in human HEK293T/NC cells assessed as fold reduction in paclitaxel IC50 at 20 uM after 72 hrs by MTT assay relative to paclitaxel; format: functional
[15] = tested on: HEK-293T; test: Potentiation of doxorubicin-induced cytotoxicity in human HEK293T/NC cells assessed as fold reduction in doxorubicin IC50 at 10 uM after 72 hrs by MTT assay relative to doxorubicin; format: functional
[16] = tested on: SW-620; test: Potentiation of cisplatin-induced cytotoxicity in human SW620 cells assessed as fold reduction in cisplatin IC50 at 10 uM after 72 hrs by MTT assay relative to cisplatin alone; format: functional
[17] = tested on: TE-1; test: Cytotoxicity against human TE1 cells at 10 to 20 uM after 72 hrs by MTT assay; format: cell-based; conditions: te-1, 72 h
[18] = tested on: ECa-109 cell line; test: Cytotoxicity against human EC109 cells at 10 to 20 uM after 72 hrs by MTT assay; format: cell-based; conditions: eca-109, 72 h
[19] = tested on: SW620/AD300; test: Effect on ABCB1 expression in human SW620/AD300 cells at 10 to 20 uM by Western blot analysis; format: functional, cell-based
[20] = molecular target: T1, ATP-dependent translocase ABCB1; test: Binding affinity to ABCB1 in human SW620/AD300 cells assessed as thermal stabilization incubated for 30 mins at 43 to 80 degC by CETSA; format: cell-based; conditions: 0.5 h
[21] = tested on: SW-620; test: Potentiation of paclitaxel-induced cytotoxicity in human SW620 cells assessed as fold reduction in paclitaxel IC50 at 20 uM after 72 hrs by MTT assay relative to paclitaxel alone; format: functional
[22] = tested on: SW-620; test: Potentiation of cisplatin-induced cytotoxicity in human SW620 cells assessed as fold reduction in cisplatin IC50 at 4 uM after 72 hrs by MTT assay relative to cisplatin alone; format: functional
[23] = tested on: HEK-293T; test: Potentiation of paclitaxel-induced cytotoxicity in human HEK293T/NC cells assessed as fold reduction in paclitaxel IC50 at 4 uM after 72 hrs by MTT assay relative to paclitaxel; format: functional
[24] = tested on: SW-620; test: Potentiation of doxorubicin-induced cytotoxicity in human SW620 cells assessed as fold reduction in doxorubicin IC50 at 4 uM after 72 hrs by MTT assay relative to doxorubicin alone; format: functional
[25] = tested on: HEK-293T; test: Potentiation of doxorubicin-induced cytotoxicity in human HEK293T/NC cells assessed as fold reduction in doxorubicin IC50 at 4 uM after 72 hrs by MTT assay relative to doxorubicin; format: functional
[26] = tested on: SW-620; test: Potentiation of paclitaxel-induced cytotoxicity in human SW620 cells assessed as fold reduction in paclitaxel IC50 at 4 uM after 72 hrs by MTT assay relative to paclitaxel alone; format: functional
[27] = tested on: HEK-293T; test: Potentiation of cisplatin-induced cytotoxicity in human HEK293T/NC cells assessed as fold reduction in cisplatin IC50 at 4 uM after 72 hrs by MTT assay relative to cisplatin; format: functional

T1 sequence (P08183 whole entry): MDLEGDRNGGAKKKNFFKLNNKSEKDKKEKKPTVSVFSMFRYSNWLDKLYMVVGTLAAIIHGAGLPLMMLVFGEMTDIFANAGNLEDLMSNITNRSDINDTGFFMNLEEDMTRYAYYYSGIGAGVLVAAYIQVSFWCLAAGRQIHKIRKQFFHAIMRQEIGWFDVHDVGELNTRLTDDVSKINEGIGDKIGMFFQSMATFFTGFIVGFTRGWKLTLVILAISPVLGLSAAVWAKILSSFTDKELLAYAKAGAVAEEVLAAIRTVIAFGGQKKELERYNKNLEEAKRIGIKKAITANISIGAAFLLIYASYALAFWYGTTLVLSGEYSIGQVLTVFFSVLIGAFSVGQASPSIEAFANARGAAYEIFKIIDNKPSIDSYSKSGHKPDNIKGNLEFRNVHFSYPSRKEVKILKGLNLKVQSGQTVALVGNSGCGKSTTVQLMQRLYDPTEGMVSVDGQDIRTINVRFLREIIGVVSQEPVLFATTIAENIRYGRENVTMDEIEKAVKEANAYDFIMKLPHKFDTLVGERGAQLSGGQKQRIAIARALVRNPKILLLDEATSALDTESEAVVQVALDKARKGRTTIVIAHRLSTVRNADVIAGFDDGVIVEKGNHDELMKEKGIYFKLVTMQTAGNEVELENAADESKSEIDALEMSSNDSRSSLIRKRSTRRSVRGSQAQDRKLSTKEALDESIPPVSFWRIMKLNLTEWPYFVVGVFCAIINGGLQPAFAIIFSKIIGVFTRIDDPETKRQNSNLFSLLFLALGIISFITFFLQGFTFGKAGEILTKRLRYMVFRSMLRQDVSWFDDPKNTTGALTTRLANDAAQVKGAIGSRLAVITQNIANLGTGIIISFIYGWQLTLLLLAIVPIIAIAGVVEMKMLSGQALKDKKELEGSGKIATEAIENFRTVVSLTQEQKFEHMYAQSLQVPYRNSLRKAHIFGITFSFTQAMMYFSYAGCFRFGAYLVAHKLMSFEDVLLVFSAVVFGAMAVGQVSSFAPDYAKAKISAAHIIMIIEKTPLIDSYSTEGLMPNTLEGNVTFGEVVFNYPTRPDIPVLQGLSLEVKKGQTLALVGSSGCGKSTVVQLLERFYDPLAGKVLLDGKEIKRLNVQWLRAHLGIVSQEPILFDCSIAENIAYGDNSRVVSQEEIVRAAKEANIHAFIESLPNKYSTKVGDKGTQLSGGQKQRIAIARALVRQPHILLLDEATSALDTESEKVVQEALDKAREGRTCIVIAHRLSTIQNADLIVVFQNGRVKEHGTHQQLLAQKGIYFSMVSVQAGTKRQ

O=c1cc(-c2ccccc2)[nH]c2nc(SCc3nc4ccccc4[nH]3)nn12
Ratio IC50 [1]: 0.87
Ratio IC50 [2]: 1.08
Activity [3]: Non-Toxic
Activity [4]: Non-Toxic
Ratio IC50 [5]: 1.14
Activity [6]: Non-Toxic
Ratio IC50 [7]: 1.17
Ratio IC50 [8]: 1.2
Ratio IC50 [9]: 1.04
inhibition (INH) [10]: Active
Ratio IC50 [11]: 0.97
Activity [12]: inactive
Activity [13]: inactive
Ratio IC50 [14]: 0.83
Ratio IC50 [15]: 1.14
Ratio IC50 [16]: 1.07
Activity [17]: Non-Toxic
Activity [18]: Non-Toxic
Activity [19]: inactive
Activity [20]: Active
Ratio IC50 [21]: 0.81

COc1ccc(CCN(C)CCCC(C#N)(c2ccc(OC)c(OC)c2)C(C)C)cc1OC (configuration not stated)
Ratio IC50 [22]: 1.1
Ratio IC50 [23]: 0.84
Ratio IC50 [24]: 1.18
Ratio IC50 [25]: 1.07
Ratio IC50 [26]: 1.29
Ratio IC50 [27]: 0.89
